ChEMBL document CHEMBL6134870 (J Med Chem, 2025)

Tests used:
[1] = human, serum, 2 h
[2] = Cytotoxicity against BoNT/A treated human iPSC cells assessed as cell rounding at 100 uM incubated for 7.5 hrs by Western blot analysis; format: toxicity, cell-based
[3] = biological target: T1, Matrix metalloproteinase-19 (Homo sapiens, UniProt Q99542); experiment: Inhibition of MMP-19 (unknown origin) at 25 uM; format: toxicity
T1 sequence (Q99542 whole entry): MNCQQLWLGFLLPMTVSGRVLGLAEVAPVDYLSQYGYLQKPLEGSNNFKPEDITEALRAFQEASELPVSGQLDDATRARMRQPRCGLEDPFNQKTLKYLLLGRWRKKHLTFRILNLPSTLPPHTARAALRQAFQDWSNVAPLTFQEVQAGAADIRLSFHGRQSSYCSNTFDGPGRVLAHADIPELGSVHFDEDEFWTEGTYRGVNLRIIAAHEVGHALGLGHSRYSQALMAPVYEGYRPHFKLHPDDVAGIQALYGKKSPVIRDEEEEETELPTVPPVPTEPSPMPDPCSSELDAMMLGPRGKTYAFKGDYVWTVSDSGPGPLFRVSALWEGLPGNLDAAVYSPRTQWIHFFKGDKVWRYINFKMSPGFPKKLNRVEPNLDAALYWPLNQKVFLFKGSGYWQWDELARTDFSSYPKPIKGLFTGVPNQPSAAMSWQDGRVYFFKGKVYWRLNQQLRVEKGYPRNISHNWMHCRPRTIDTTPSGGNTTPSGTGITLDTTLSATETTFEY

[4] = biological target: Matrix metalloproteinase-14 (Homo sapiens, UniProt P50281); experiment: Inhibition of MMP-14 (unknown origin) at 25 uM; format: toxicity
[5] = tested on: HEK293; experiment: Cytotoxicity against HEK293 cells assessed as reduction in cell viability at 2 to 128 uM incubated for 24 hrs by MTS assay; format: toxicity, cell-based; details: human, hek293, 24 h, dose 2-128 µM

| Compound | t1/2 [1] | Activity [2] | further results |
| --- | --- | --- | --- |
| C=C=CC(=O)NCCCc1ccn2c(=O)cc(CNCc3ccc(-c4ccccc4)cc3)nc2c1O | 6.4 h |  |  |
| FC(F)(F)c1ccc(-c2ccc3c(c2)CC(=S)N3)c(C2CC2)c1 |  | Toxic |  |
| FC(F)(F)c1ccc(-c2cc3c(cc2Cl)NC(=S)C3)c(C(F)(F)F)c1 |  |  | Activity [3]: Active; Activity [4]: Active |
| FC(F)(F)c1ccc(-c2ccc3c(c2)CC(=S)N3)c(C(F)(F)F)c1 |  | Toxic | Activity [5]: Non-toxic |
| Cn1c(SC(=O)C(C)(C)C)cc2cc(C(=O)Nc3ccccc3)ccc21 | 1.2 h |  |  |
